Results published in ChEMBL document CHEMBL4020801, “New merosesquiterpenes from a Vietnamese marine sponge of Spongia sp. and their biological activities” (Bioorg Med Chem Lett, 2017).
Values after ≈ are worked out from the molar mass of the structure shown.

Tests used:
[1] = test system: Escherichia coli; test: Antibacterial activity against Escherichia coli NBRC 102203 after 12 hrs by MTT assay; assay type: functional; settings: NBRC 102203, 12 h
[2] = test system: HeLa; test: Cytotoxicity against human HeLa cells assessed as decrease in cell viability after 72 hrs by WST8 assay; assay type: functional, cell-based
[3] = test system: A549; test: Cytotoxicity against human A549 cells assessed as decrease in cell viability after 72 hrs by WST8 assay; assay type: functional, cell-based; settings: A549, 72 h
[4] = test system: WI-38; test: Cytotoxicity against human WI38 cells assessed as decrease in cell viability after 72 hrs by WST8 assay; assay type: cell-based; settings: WI-38, 72 h
[5] = test system: Staphylococcus aureus; test: Antibacterial activity against Staphylococcus aureus NBRC 100910 after 12 hrs by MTT assay; assay type: functional; settings: NBRC 100910, 12 h
[6] = test system: MCF7; test: Cytotoxicity against human MCF7 cells assessed as decrease in cell viability after 72 hrs by WST8 assay; assay type: functional, cell-based; settings: MCF7, 72 h
[7] = test system: Klebsiella pneumoniae; test: Antibacterial activity against Klebsiella pneumoniae NBRC 14940 after 12 hrs by MTT assay; assay type: functional; settings: NBRC 14940, 12 h
[8] = test system: Bacillus subtilis; test: Antibacterial activity against Bacillus subtilis NBRC 13719 after 12 hrs by MTT assay; assay type: functional; settings: NBRC 13719, 12 h

| SMILES | MIC [1] | IC50 [2] | IC50 [3] | IC50 [4] | MIC [5] | IC50 [6] | MIC [7] | MIC [8] |
| --- | --- | --- | --- | --- | --- | --- | --- | --- |
| C=C1CCC[C@H]2[C@](C)(CC3=C(O)C(=O)C=C(NCC(C)C)C3=O)[C@@H](C)CC[C@]12C | > 100 µM | 7.6 µM | 6.7 µM | 3.5 µM | 25 µM (≈ 9.99 µg/mL) | 4.6 µM | > 100 µM | 12.5 µM (≈ 4.99 µg/mL) |
| C=C1CCC[C@@H]2[C@@](C)(Cc3cc(C(=O)OC)cc(O)c3O)[C@H](C)CC[C@@]12C | > 100 µM | > 50 µM | > 50 µM | > 50 µM | 6.25 µM (≈ 2.33 µg/mL) | > 50 µM | > 100 µM | 6.25 µM (≈ 2.33 µg/mL) |
| C=C1CCC[C@@H]2[C@@](CO)(Cc3cc(C(=O)OC)cc(OC)c3O)[C@H](C)CC[C@@]12C | > 100 µM | > 50 µM | > 50 µM | > 50 µM | > 100 µM | 42.6 µM | > 100 µM | > 100 µM |
| C=C1CCC[C@H]2[C@](C)(CC3=C(O)C(=O)C=C(NCCCSC)C3=O)[C@@H](C)CC[C@]12C | > 100 µM | 8 µM | 6.2 µM | 8.8 µM | 12.5 µM (≈ 5.4 µg/mL) | 8.7 µM | > 100 µM | 12.5 µM (≈ 5.4 µg/mL) |
| C=C1CCC[C@H]2[C@](C)(CC3=C(O)C(=O)C=C(OCCCC)C3=O)[C@@H](C)CC[C@]12C | > 100 µM | 7.6 µM | 6.6 µM | 8.2 µM | 12.5 µM (≈ 5.01 µg/mL) | 9.6 µM | > 100 µM | 6.25 µM (≈ 2.5 µg/mL) |
| C=C1CCC[C@@H]2[C@@](C=O)(Cc3cc(C(=O)OC)c(O)c(OC)c3O)[C@H](C)CC[C@@]12C | > 100 µM | 7.2 µM | 7.8 µM | 8.7 µM | > 100 µM | 5 µM | > 100 µM | 25 µM (≈ 10.4 µg/mL) |
| C=C1CCC[C@@H]2[C@@](C)(Cc3cc(C(=O)OC)cc(OC)c3O)[C@H](C)CC[C@@]12C | > 100 µM | > 50 µM | > 50 µM | > 50 µM | > 100 µM | > 50 µM | > 100 µM | > 100 µM |
| C=C1CCC[C@H]2[C@](C)(CC3=C(O)C(=O)C=C(NCCc4ccccc4)C3=O)[C@@H](C)CC[C@]12C | > 100 µM | 5 µM | 4 µM | 3 µM | 6.25 µM (≈ 2.8 µg/mL) | 6.5 µM | > 100 µM | 6.25 µM (≈ 2.8 µg/mL) |
| C=C1CCC[C@@H]2[C@@](C=O)(Cc3cc(C(=O)OC)cc(OC)c3O)[C@H](C)CC[C@@]12C | > 100 µM | > 50 µM | > 50 µM | > 50 µM | > 100 µM | > 50 µM | > 100 µM | > 100 µM |
| C=C1CCC[C@@H]2[C@@](CO)(Cc3cc(C(=O)OC)c(O)c(OC)c3O)[C@H](C)CC[C@@]12C | > 100 µM | > 50 µM | > 50 µM | 42.1 µM | > 100 µM | > 50 µM | > 100 µM | > 100 µM |
| C=C1CCC[C@H]2[C@](C)(CC3=C(O)C(=O)C=C(NCC(C)CC)C3=O)[C@@H](C)CC[C@]12C (some centres not stated) | > 100 µM | 4.8 µM | 8.9 µM | 6.9 µM | 6.25 µM (≈ 2.59 µg/mL) | 7.6 µM | > 100 µM | 6.25 µM (≈ 2.59 µg/mL) |
| C=C1CCC[C@@H]2[C@@](C)(Cc3cc(C(=O)OC)c(O)c(OC)c3O)[C@H](C)CC[C@@]12C | > 100 µM | > 50 µM | > 50 µM | > 50 µM | > 100 µM | > 50 µM | > 100 µM | 12.5 µM (≈ 5.03 µg/mL) |
| CC1(C)S[C@@H]2[C@H](NC(=O)[C@H](N)c3ccccc3)C(=O)N2[C@H]1C(=O)O [AMPICILLIN] | – | – | – | – | 6.25 µM (≈ 2.18 µg/mL) | – | – | 6.25 µM (≈ 2.18 µg/mL) |
| O=c1[nH]cc(F)c(=O)[nH]1 [FLUOROURACIL] | – | 5.3 µM | 4.7 µM | 6.8 µM | – | 5.6 µM | – | – |
| C=C1CCC[C@H]2[C@](C)(CC3=C(O)C(=O)C=C(OC)C3=O)[C@@H](C)CC[C@]12C [ILIMAQUINONE] | > 100 µM | 7.6 µM | 5.9 µM | 9.7 µM | 6.25 µM (≈ 2.24 µg/mL) | 8.3 µM | > 100 µM | 6.25 µM (≈ 2.24 µg/mL) |
| NC[C@H]1O[C@H](O[C@H]2[C@H](O)[C@@H](O[C@H]3O[C@H](CO)[C@@H](O)[C@H](N)[C@H]3O)[C@H](N)C[C@@H]2N)[C@H](O)[C@@H](O)[C@@H]1O [KANAMYCIN] | 12.5 µM (≈ 6.06 µg/mL) | – | – | – | – | – | 6.25 µM (≈ 3.03 µg/mL) | – |
